Assay results as given in patent US20200278355A1, “CONJUGATED PROTEINS AND USES THEREOF” (THE SCRIPPS RESEARCH INSTITUTE, priority 2017, published 2020).

Columns and labels:
KEAP1-mutant NSCLC cells = test: Colony formation in soft agar, KEAP1-mutant NSCLC cells; assay type: cell-based, human; conditions: 5 μM
Text: Based on its in situ activity (FIG. 6D and FIG. 12A, 12G) and selectivity (FIGS. 6A, 6B), BPK-29 was chosen for additional biological studies. […] Exogenous expression of […] the growth inhibition caused by BPK-29.

NR0B1 = biological target: T1, NR0B1 (Homo sapiens, UniProt P51843); test: isoTOP-ABPP of compound-treated H460 cells: NR0B1; assay type: cell-based; conditions: for receptor occupancy at 40 µM: NCI-H460, 40 μM for 3 h, read-out: target occupancy of C274 of NR0B1
T1 construct: H460 cells or H460 cells expressing luciferase in a 10 cm plate were incubated with indicated compounds; endogenous in cells; host or cells: H460 (NSCLC, KEAP1-mutant)
T1 sequence (P51843 1-470): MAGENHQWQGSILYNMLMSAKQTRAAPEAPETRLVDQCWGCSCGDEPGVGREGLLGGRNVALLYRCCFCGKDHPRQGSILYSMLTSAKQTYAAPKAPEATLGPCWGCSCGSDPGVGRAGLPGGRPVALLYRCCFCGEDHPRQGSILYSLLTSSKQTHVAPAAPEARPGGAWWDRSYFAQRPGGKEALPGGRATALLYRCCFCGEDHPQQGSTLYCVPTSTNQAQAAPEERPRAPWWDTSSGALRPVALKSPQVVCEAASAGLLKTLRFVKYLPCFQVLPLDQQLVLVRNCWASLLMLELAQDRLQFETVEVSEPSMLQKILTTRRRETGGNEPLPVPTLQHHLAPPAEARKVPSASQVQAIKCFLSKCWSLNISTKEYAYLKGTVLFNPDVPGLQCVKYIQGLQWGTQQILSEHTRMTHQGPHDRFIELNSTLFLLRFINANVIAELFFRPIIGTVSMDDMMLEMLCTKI
Description: For analysis of NR0B1 ligands or control compound reactivity, H460 cells or H460 cells expressing luciferase in a 10 cm plate were incubated with indicated compounds in serum/dye-free RPMI for 3 hours at 37° C. Cells were washed once ice-cold PBS and lysed in 1% Triton X-100 dissolved in PBS with protease inhibitors (Sigma) by sonication. Samples were clarified by centrifugation for 10 min at 16,000×g. Lysate was adjusted to 1.5 mg ml^−1 in 500 μL.
Samples were labeled for 1 h at ambient temperature with 100 μM iodoacetamide alkyne (1, IA-alkyne, 5 μL of 10 mM stock in DMSO). Samples were conjugated by copper-catalyzed azide-alkyne cycloaddition (CuAAC) to isotopically labeled, TEV-cleavable tags (TEV-tags). Heavy CuAAC reaction mixtures was added to the DMSO-treated or shGFP control samples and light CuAAC reaction mixture was added to compound-treated or shNRF2 samples. The CuAAC reaction mixture consisted of TEV tags (light or heavy, 10 μL of 5 mM stocks in DMSO, final concentration=100 μM), 1 mM tris(2-carboxyethyl)phosphine hydrochloride (TCEP; fresh 50× stock in water, final concentration=1 mM), ligand (17× stock in DMSO:t-butanol 1:4, final concentration=100 μM) and 1 mM CuSO4 (50× stock in water, final concentration=1 mM). The samples were allowed to react for 1 h at which point the samples were centrifuged (16,000×g, 5 min, 4° C.). The resulting pellets were sonicated in ice-cold methanol (500 μL) and the resuspended light- and heavy-labeled samples were then combined pairwise and centrifuged (16,000×g, 5 min, 4° C.). The pellets were solubilized in PBS containing 1.2% SDS (1 mL) with sonication and heating (5 min, 95° C.) and any insoluble material was removed by an additional centrifugation step at ambient temperature (14,000×g, 1 min).
For each sample, 100 μL of streptavidin-agarose beads slurry (Fisher) was washed in 10 mL PBS and then resuspended in 6 mL PBS (final concentration 0.2% SDS in PBS). The SDS-solubilized proteins were added to the suspension of streptavidin-agarose beads and the bead mixture was rotated for 3 h at ambient temperature. After incubation, the beads were pelleted by centrifugation (1,400×g, 3 min) and were washed (2×10 mL PBS and 2×10 mL water).
The beads were transferred to eppendorftubes with 1 mL PBS, centrifuged (1,400×g, 3 min), and resuspended in PBS containing 6 M urea (500 μL). To this was added 10 mM DTT (25 μL of a 200 mM stock in water) and the beads were incubated at 65° C. for 15 mins. 20 mM iodoacetamide (25 μL of a 400 mM stock in water) was then added and allowed to react at 37° C. for 30 mins with shaking. The bead mixture was diluted with 900 μL PBS, pelleted by centrifugation (1,400×g, 3 min), and resuspended in PBS containing 2 M urea (200 μL). To this was added 1 mM CaCl2 (2 μL of a 200 mM stock in water) and trypsin (2 μg, Promega, sequencing grade) and the digestion was allowed to proceed overnight at 37° C. with shaking. The beads were separated from the digest with Micro Bio-Spin columns (Bio-Rad) by centrifugation (1,000×g, 1 min), washed (2×1 mL PBS and 2×1 mL water) and then transferred to fresh eppendorf tubes with 1 mL water. The washed beads were washed once further in 140 μL TEV buffer (50 mM Tris, pH 8, 0.5 mM EDTA, 1 mM DTT) and then resuspended in 140 μL TEV buffer. 5 μL TEV protease (80 μM) was added and the reactions were rotated overnight at 29° C. The TEV digest was separated from the beads with Micro Bio-Spin columns by centrifugation (1,400×g, 3 min) and the beads were washed once with water (100 μL). The samples were then acidified to a final concentration of 5% (v/v) formic acid and stored at −80° C. prior to analysis.
Samples processed for multidimensional liquid chromatography tandem mass spectrometry (MudPIT) were pressure loaded onto a 250 μm (inner diameter) fused silica capillary columns packed with C18 resin (Aqua 5 μm, Phenomenex). […]

| Structure (SMILES) | colony formation in soft agar (KEAP1-mutant NSCLC cells) | engagement of C274 of NR0B1 (NR0B1; NSCLC cells, 40 μM, 3 h) | cysteines in NR0B1 engaged among several quantified cysteines (NR0B1; 40 μM, 3 h) | receptor occupancy at 40 µM (NR0B1; NSCLC cells) [%] | BPK-29-competed isoTOP-ABPP analysis (NR0B1; NR0B1 C274, 40 μM) | relative potency of C274 engagement (NR0B1; NSCLC cells) | engagement of C274 (NR0B1; NSCLC cells, 5 μM, 3 h) [%] |
| --- | --- | --- | --- | --- | --- | --- | --- |
| O=C(c1ccc(N2CCOCC2)cc1)N1CCC(CN(C(=O)CCl)c2cncnc2)CC1 [BPK-9, 2-chloro-N-((1-(4-morpholinobenzoyl)piperidin-4-yl)methyl)-N-(pyrimidin-5-yl)acetamide] | much less of an effect | did not engage C274 |  |  |  |  |  |
| O=C(CCl)N(Cc1cccc(Cl)c1F)c1ccc(Cl)nc1 [BPK-26, 2-chloro-N-(3-chloro-2-fluorobenzyl)-N-(6-chloropyridin-3-yl)acetamide] |  |  | the only cysteine in NR0B1 engaged | ~70 |  |  |  |
| O=C(c1ccc(N2CCOCC2)cc1)N1CCCC(N(Cc2ccccc2)C(=O)CCl)CC1 (stereo not shown) [BPK-29, N-benzyl-2-chloro-N-(1-(4-morpholinobenzoyl)azepan-4-yl)acetamide] | blocked colony formation |  | the only cysteine in NR0B1 engaged | ~70 | Yes (Competed defined as showing R value ≥ 3.0 at 40 μM of test compound) | superior potency compared to BPK-26 | > 50 |
